Measurements reported in ChEMBL document CHEMBL3045396, “Easy Preparation of Methyl 7-epi-Jasmonate and Four Stereoisomers of Methyl Cucurbate, and Assessment of the Stereogenic Effect of Jasmonate on Phytohormonal Activities” (Biosci Biotechnol Biochem, 1999).
Calls of active or inactive are those of the source. No cut-off for these calls is given here.

How the values were obtained:
Oryza sativa = assay: Phytohormonal activity against Oryza sativa (rice) seedlings assessed as growth inhibition of second leaf sheath at 1 to 300 uM after 5 days relative to control; format: functional, organism-based
Lepidium sativum = assay: Phytohormonal activity against Lepidium sativum assessed as inhibition of seed germination at 100 to 1000 uM after 2 days relative to control; format: functional, organism-based

SMILES	growth inhibition (GI) (Oryza sativa)	inhibition (Lepidium sativum)
CC/C=C\C[C@H]1[C@@H](CC(=O)OC)CC[C@@H]1O	Active	Active
CC/C=C\C[C@H]1[C@@H](CC(=O)O)CC[C@@H]1O	inactive	–
CC/C=C\C[C@H]1C(=O)CC[C@@H]1CC(=O)O	Active	–
CC/C=C\C[C@@H]1[C@@H](CC(=O)OC)CC[C@H]1O	inactive	inactive
CC/C=C\C[C@@H]1C(=O)CC[C@@H]1CC(=O)OC	Active	Active
CC/C=C\C[C@H]1[C@@H](CC(=O)OC)CC[C@H]1O	Active	Active
CC/C=C\C[C@@H]1[C@@H](CC(=O)OC)CC[C@@H]1O	inactive	inactive
CC/C=C\C[C@H]1C(=O)CC[C@@H]1CC(=O)OC (racemic)	Active	Active
